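Cells were grown in 96-well plates and exposed to each compound for 48 hours at five concentrations; endpoints were interpolated linearly between bracketing concentrations, or set to the highest concentration if not reached. Definition used: TGI = concentration required for complete inhibition of growth.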
How the values were obtained:
Assay in all cases: inhibition of tumour cell growth, NCI panel, 48 h
[1] = system: K-562 leukemia
[2] = system: SNB-78 CNS
[3] = system: SK-OV-3 ovarian
[4] = system: 786-0 renal
[5] = system: NCI-H460 lung
[6] = system: DMS 114 small cell lung
[7] = system: HCC-2998 colon
[8] = system: RPMI-8226 leukemia
[9] = system: COLO 205 colon
[10] = system: LXFL 529 NSCLC
[11] = system: HOP-62 NSCLC
[12] = system: IGROV1 ovarian
[13] = system: UO-31 renal
[14] = system: OVCAR-4 ovarian
[15] = system: CAKI-1 renal
[16] = system: DLD-1 colon
[17] = system: HCT-116 colon
[18] = system: M19-MEL melanoma
[19] = system: UACC-62 melanoma
[20] = system: SK-MEL-28 melanoma
[21] = system: ACHN renal
[22] = system: A498 renal
[23] = system: HOP-92 NSCLC
[24] = system: SK-MEL-2 melanoma
[25] = system: M14 melanoma
[26] = system: SR leukemia
[27] = system: NCI-H23 lung
[28] = system: DMS 273 small cell lung
[29] = system: MOLT-4 leukemia
[30] = system: CCRF-CEM leukemia
[31] = system: MALME-3M melanoma
[32] = system: NCI-H226 lung
[33] = system: SNB-75 CNS
[34] = system: SF-268 CNS
[35] = system: NCI-H522 lung
[36] = system: RXF-631 renal
[37] = system: HL-60(TB) leukemia
[38] = system: SF-539 CNS
[39] = system: SF-295 CNS
[40] = system: KM20L2 colon
[41] = system: A549 NSCLC
[42] = system: KM12 colon
[43] = system: LOX IMVI melanoma
[44] = system: SK-MEL-5 melanoma
[45] = system: OVCAR-8 ovarian
[46] = system: XF 498 CNS
[47] = system: SNB-19 CNS
[48] = system: U251 CNS
[49] = system: HCT-15 colon
[50] = system: HT29 colon
[51] = system: OVCAR-3 ovarian
[52] = system: UACC-257 melanoma
[53] = system: SN12C renal
[54] = system: TK-10 renal
[55] = system: SW-620 colon
[56] = system: OVCAR-5 ovarian
[57] = system: EKVX NSCLC
[58] = system: HOP-18 NSCLC
[59] = system: RXF 393 renal

In the case of `COc1cc([C@H]2Oc3cc(O)c4c(=O)cc(-c5ccc(O)cc5)oc4c3O[C@@H]2CO)ccc1O`, the TGI [1] is reported as 83.5 µM, the TGI [2] is reported as 98.1 µM and the TGI [3] is reported as 36.6 µM. For the same molecule, the TGI [4] was 29.3 µM, the TGI [5] was 17.8 µM and the TGI [6] was 40 µM. It also gave a TGI [7] of 28.5 µM, a TGI [8] of 46 µM and a TGI [9] of 31.7 µM. The TGI [10] was 29.2 µM, the TGI [11] was 33.5 µM and the TGI [12] was 59.3 µM. For the same molecule, the TGI [13] was 54.2 µM, the TGI [14] was 63.2 µM and the TGI [15] was 44.9 µM. The TGI [16] was 32.3 µM, the TGI [17] was 26.4 µM and the TGI [18] was 36.8 µM. The TGI [19] was 34.2 µM, the TGI [20] was 28 µM and the TGI [21] was 63.4 µM. The TGI [22] was 35.2 µM, the TGI [23] was 60.7 µM and the TGI [24] was 30.7 µM. It also gave a TGI [25] of 34 µM, a TGI [26] of 47.8 µM and a TGI [27] of 31.1 µM. The TGI [28] was 31.8 µM, the TGI [29] was 53.9 µM and the TGI [30] was 44.3 µM. The TGI [31] was 33.3 µM, the TGI [32] was 39 µM and the TGI [33] was 18.5 µM. For the same molecule, the TGI [34] was 5.79 µM, the TGI [35] was 18.6 µM and the TGI [36] was 24.1 µM. The TGI [37] was 53 µM.

Molecule `Nc1ccc(C(=O)NN2C(=O)C(Cl)C2c2ccccc2O)cc1` (stereo unspecified) has a TGI [38] greater than 100 µM, a TGI [1] greater than 100 µM and a TGI [2] greater than 100 µM. For the same molecule, the TGI [3] was greater than 100 µM, the TGI [4] was greater than 100 µM and the TGI [39] was greater than 100 µM. It also gave a TGI [5] greater than 100 µM, a TGI [40] greater than 100 µM and a TGI [41] greater than 100 µM. For the same molecule, the TGI [42] was greater than 100 µM, the TGI [43] was greater than 100 µM and the TGI [6] was 79.6 µM. For the same molecule, the TGI [44] was greater than 100 µM, the TGI [45] was greater than 100 µM and the TGI [7] was 98.5 µM. The TGI [8] was greater than 100 µM, the TGI [46] was greater than 100 µM and the TGI [47] was greater than 100 µM. For the same molecule, the TGI [9] was greater than 100 µM, the TGI [10] was greater than 100 µM and the TGI [11] was greater than 100 µM. The TGI [12] was greater than 100 µM, the TGI [13] was 75.2 µM and the TGI [48] was greater than 100 µM. For the same molecule, the TGI [14] was greater than 100 µM, the TGI [49] was greater than 100 µM and the TGI [15] was greater than 100 µM. For the same molecule, the TGI [16] was greater than 100 µM, the TGI [17] was greater than 100 µM and the TGI [18] was greater than 100 µM. For the same molecule, the TGI [50] was greater than 100 µM, the TGI [19] was greater than 100 µM and the TGI [51] was greater than 100 µM. It also gave a TGI [20] greater than 100 µM, a TGI [52] greater than 100 µM and a TGI [53] greater than 100 µM. It also gave a TGI [21] greater than 100 µM, a TGI [23] greater than 100 µM and a TGI [24] greater than 100 µM. For the same molecule, the TGI [25] was greater than 100 µM, the TGI [27] was greater than 100 µM and the TGI [28] was greater than 100 µM. For the same molecule, the TGI [54] was greater than 100 µM, the TGI [29] was greater than 100 µM and the TGI [30] was greater than 100 µM. The TGI [55] was greater than 100 µM, the TGI [56] was greater than 100 µM and the TGI [31] was greater than 100 µM. The TGI [32] was greater than 100 µM, the TGI [33] was greater than 100 µM and the TGI [34] was greater than 100 µM. For the same molecule, the TGI [35] was greater than 100 µM, the TGI [57] was greater than 100 µM and the TGI [37] was 48 µM.

Molecule `CCCCCCCCCCCC(=O)OCC1OC(n2cc(F)c(=O)[nH]c2=O)C(N)C(O)C1O` (stereo unspecified) has a TGI [38] greater than 100 µM, a TGI [1] greater than 100 µM and a TGI [2] greater than 100 µM. The TGI [3] was greater than 100 µM, the TGI [4] was greater than 100 µM and the TGI [39] was greater than 100 µM. The TGI [5] was greater than 100 µM, the TGI [40] was greater than 100 µM and the TGI [41] was greater than 100 µM. For the same molecule, the TGI [42] was greater than 100 µM, the TGI [58] was greater than 100 µM and the TGI [6] was greater than 100 µM. It also gave a TGI [44] greater than 100 µM, a TGI [45] greater than 100 µM and a TGI [7] greater than 100 µM. The TGI [8] was greater than 100 µM, the TGI [47] was greater than 100 µM and the TGI [9] was greater than 100 µM. For the same molecule, the TGI [10] was greater than 100 µM, the TGI [11] was greater than 100 µM and the TGI [12] was greater than 100 µM. For the same molecule, the TGI [13] was greater than 100 µM, the TGI [48] was greater than 100 µM and the TGI [14] was greater than 100 µM. The TGI [49] was greater than 100 µM, the TGI [15] was greater than 100 µM and the TGI [16] was greater than 100 µM. For the same molecule, the TGI [17] was greater than 100 µM, the TGI [18] was greater than 100 µM and the TGI [50] was greater than 100 µM. It also gave a TGI [19] greater than 100 µM, a TGI [51] greater than 100 µM and a TGI [59] greater than 100 µM. The TGI [20] was greater than 100 µM, the TGI [52] was greater than 100 µM and the TGI [53] was greater than 100 µM. For the same molecule, the TGI [21] was greater than 100 µM, the TGI [22] was greater than 100 µM and the TGI [23] was greater than 100 µM. For the same molecule, the TGI [24] was greater than 100 µM, the TGI [25] was greater than 100 µM and the TGI [26] was greater than 100 µM. It also gave a TGI [27] greater than 100 µM, a TGI [28] greater than 100 µM and a TGI [29] greater than 100 µM. For the same molecule, the TGI [30] was greater than 100 µM, the TGI [55] was greater than 100 µM and the TGI [56] was greater than 100 µM. The TGI [31] was greater than 100 µM, the TGI [32] was greater than 100 µM and the TGI [33] was greater than 100 µM. It also gave a TGI [34] greater than 100 µM, a TGI [35] greater than 100 µM and a TGI [57] greater than 100 µM. The TGI [37] was greater than 100 µM.

— PubChem BioAssay (NCI)
